From article PMC8252455, “Prediction of a clinically effective dose of THY1773, a novel V 1B receptor antagonist, based on preclinical data” (Biopharmaceutics & Drug Disposition, 2021)
Several values for one entry are separate records, joined by “and”; a condition that tells them apart may be missing. Equal values may be shown once.

Columns and labels:
[1] = Plasma protein binding by equilibrium dialysis, rat plasma; type: in vitro ADME; conditions: 300 ng/ml
Method: The plasma protein binding of THY1773 in rats, dogs, and humans was evaluated by an equilibrium dialysis method using a 96‐well equilibrium dialysis plate (HTDialysis) with a 12–14 kDa cut‐off dialysis membrane. THY1773 was dissolved in dimethyl sulfoxide, and spiked with rat, dog, or human plasma at a final concentration of 300 ng/ml. An aliquot of plasma containing THY1773 and sodium phosphate buffer (pH 7.4) was added into the donor side and the receiver side of each designated well, respectively. After incubation for 6 h at a rate of 50 oscillation/min at 37°C in an air incubator, an aliquot of each side of each well was collected and mixed with acetonitrile/methanol (9:1, vol/vol) containing the IS. Each sample was centrifuged at 3974 × g for 10 min at 4°C to remove the precipitated proteins, and the resultant supernatants were subjected to LC‐MS/MS analysis. The protein binding (%) was calculated using the Boudinot formula (Boudinot & Jusko, 1984).

[2] = PK and urinary excretion in dogs; type: in vivo, dog
Method: The PK and urinary excretion of THY1773 in rats (1 mg/kg) and dogs (0.5 mg/kg) under fasted conditions were evaluated following intravenous or oral administration of THY1773. THY1773 was dissolved in 10% (vol/vol) hydroxypropyl‐β‐cyclodextrin at pH 4 for intravenous administration, or suspended in 0.5% (wt/vol) methyl cellulose 400 for oral administration. After a single intravenous or oral administration of THY1773, blood samples were collected into tubes containing EDTA‐2K as an anticoagulant. The scheduled time points were predose (dog only), 5 (intravenous only), 15, 30 min, 1, 2, 4, 8, 12, and 24 h postdose. Plasma was separated by centrifugation. Urine samples were collected into bottles set on ice for 24 h after intravenous administration of THY1773. Plasma and urine samples were treated with 4 volumes of acetonitrile/methanol (9:1, vol/vol) containing the IS. After centrifugation (3639 × g, 4°C, 10 min) to remove precipitated proteins, the supernatant was subjected to LC‐MS/MS analysis. The distributions of THY1773 into brain and pituitary gland in rats were investigated after a single oral administration of THY1773 (1 mg/kg). Blood was collected from the tail vein into tubes containing EDTA‐2K at 1 h after a single oral administration of THY1773, and the plasma was separated by centrifugation (12000 × g, 4°C, 3 min). After blood collection, the brain and pituitary gland were excised followed by homogenization with approximately 4 volumes of distilled water. Plasma, brain, and pituitary samples were treated with 4 volumes of acetonitrile/methanol (9:1, vol/vol) containing the IS and centrifuged (3639 × g, 4°C, 10 min). Aliquots of the supernatant were subjected to LC‐MS/MS analysis.
(§1) The plasma concentration–time profiles of THY1773 were analyzed by a non‐compartmental analysis with PK analysis software Phoenix WinNonlin® (version 6.1; Certara), and the PK parameters were calculated. The fraction excreted in urine was calculated by dividing the amount of THY1773 excreted in urine by the administered dose.

[3] = Phase 1 single ascending dose study of TS-121 capsules; type: in vivo, human
Method: as §1
A first‐in‐human, randomized, double‐blind, placebo‐controlled, adaptive, single‐ascending dose study was conducted to evaluate the safety, tolerability, and PK of single oral doses of TS‐121 capsules in the United States. This study was conducted in accordance with the ethical principles of the Declaration of Helsinki, International Council for Harmonization Good Clinical Practice Guidelines, and the United States Food and Drug Administration Code of Federal Regulations. The study was approved by an institutional ethical review board. All subjects provided written informed consent before participating in the study. Sixty‐eight healthy male or female volunteers were enrolled and received a single oral dose of either TS‐121 capsules (0.5, 2.5, 4, 8, 15, 30, or 50 mg as THY1773/day) or placebo in a 3:1 ratio in a fasted state.
Blood samples were collected at predose and 0.25, 0.5, 0.75, 1, 1.5, 2, 3, 4, 6, 8, 10, 12, 24, 36, and 48 h postdose. Urine samples were collected before dosing and at the following time intervals after dosing: 0–6, 6–12, 12–24, 24–36, and 36–48 h. THY1773 plasma and urine concentrations were determined by validated LC‐MS/MS methods. PK parameters were evaluated following the method as described in Section 2.5 PK analysis.

major CYP isoforms = test: In vitro CYP inhibition or induction potential; type: in vitro ADME; conditions: data not shown
[4] = tested on: anterior pituitary V1B receptor; set-up: method as in Kamiya et al., 2020; conditions: rats; ref Kamiya et al., 2020; cited from earlier work
[5] = male dogs, iv 0.5 mg/kg, mean (%CV), n=3
[6] = male dogs, po 0.5 mg/kg, mean (%CV), n=3
[7] = human, average over dose range 0.5 to 50 mg
[8] = human, single oral 30 mg, fasted, mean

## CC(C)NC(=O)Cn1c(-c2cccc(Cl)c2)nn(-c2ccc(CCN3CCOCC3)cc2)c1=O [THY1773]
[1]
  Plasma protein binding: 89.2%
[2]; dogs
  CLrenal compared with fu × GFR: comparable to fu × GFR
[2]; dogs, single intravenous administration
  CLtotal as share of hepatic blood flow: approximately 30 % of hepatic blood flow
[2]; dogs, within 24 h post intravenous dosing
  Urinary excretion of unchanged drug: 2.0%
[2]; [5]
  AUC0‐∞: 664 (23.7) h·ng/ml
  CLtotal: 785 (26.4) ml/h/kg
  Vdss: 2020 (37.6) ml/kg
  t1/2: 3.07 (59.3) h
[2]; [6]
  AUC0‐∞: 307 (37.7) h·ng/ml
  Cmax: 105 (12.3) ng/ml
  F (oral bioavailability): 45.0 (16.6) %
  t1/2: 2.40 (81.2) h
  tmax: 0.500 (0.0) h
[3]; human
  Observed CLrenal compared with predicted value: lower than the predicted value
  Observed oral blood CL as share of hepatic blood flow: 2.6 % of the hepatic blood flow
[3]; [7]
  Apparent volume of distribution during the terminal phase: 40.6 L
  Oral CLtotal: 1.32 L/h
[3]; human, dose range 0.5–50 mg
  Dose linearity of PK: linear PK
[3]; [8]
  AUC0‐∞: 21340 ng·h/mL
  CLpo: 1.52 L/h
  Cmax: 949 ng/mL
  Vdz/F: 43.6 L
[3]; human, single oral 30 mg, fasted, median
  tmax: 1.3 h and 1.27 h
[3]; human, within 48 h post oral dosing, average over dose range
  Urinary excretion of unchanged drug: 4.2%
[3]; oral, phase 1 study
  Observed human CLtotal/F: 0.287 mL/min/kg
  Observed human Vdz/F: 0.528 L/kg
Major CYP isoforms
  In vitro inhibition or induction potential on major CYP isoforms: did not have any apparent in vitro inhibition or induction potential
[4]
  Occupancy of anterior pituitary V1B receptor after oral administration: dose‐dependently
